≈ marks a conversion by molar mass, not a printed value. Calls of active or inactive are those of the source. The rule behind the calls is not given here.
Assays:
[1] = target: T1, Peroxisome proliferator-activated receptor gamma (Homo sapiens) (UniProt P37231); experiment: Agonist activity at full length human PPARgamma transfected in rat Ac2F cells cotransfected with PPRE-TK-luc assessed as induction of transactivation activity at 10 ug/ml by luciferase reporter gene assay relative to control; type: functional, cell-based
T1 sequence (whole entry): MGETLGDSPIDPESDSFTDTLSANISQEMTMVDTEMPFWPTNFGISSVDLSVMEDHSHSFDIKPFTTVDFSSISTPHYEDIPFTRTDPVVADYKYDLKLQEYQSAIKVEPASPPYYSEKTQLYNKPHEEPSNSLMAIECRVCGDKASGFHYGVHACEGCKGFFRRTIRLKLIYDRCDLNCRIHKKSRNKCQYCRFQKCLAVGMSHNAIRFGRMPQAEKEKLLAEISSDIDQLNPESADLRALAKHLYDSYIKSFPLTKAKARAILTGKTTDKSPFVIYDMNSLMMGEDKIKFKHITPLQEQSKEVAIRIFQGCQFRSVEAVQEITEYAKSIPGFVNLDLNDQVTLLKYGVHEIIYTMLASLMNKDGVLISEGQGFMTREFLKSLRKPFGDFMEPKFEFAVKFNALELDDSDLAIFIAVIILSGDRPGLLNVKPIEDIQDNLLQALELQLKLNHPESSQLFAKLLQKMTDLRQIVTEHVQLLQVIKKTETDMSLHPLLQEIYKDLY

[2] = target: T1, Peroxisome proliferator-activated receptor gamma (Homo sapiens); experiment: Agonist activity at full length human PPARgamma transfected in rat Ac2F cells cotransfected with PPRE-TK-luc assessed as induction of transactivation activity at 1 ug/ml by luciferase reporter gene assay relative to control; type: functional, cell-based
[3] = Antioxidant activity assessed as radical scavenging activity by NBT reduction assay; type: functional
[4] = system: Radical scavenging activity; experiment: Antioxidant activity assessed as DPPH radical scavenging activity; type: functional

In the case of `N[C@H](CCCCNC(=O)C(=O)c1c[nH]c2cc(O)ccc12)C(=O)O`, the Activity [1] was “Active” and the Activity [2] was “Active”.

With `N=C(N)NCCC[C@@H](NC(=O)C(=O)c1c[nH]c2cc(O)ccc12)C(=O)O` the Activity [1] was “Active” and the Activity [2] was “Active”.

In the case of `O=C(N[C@H](Cc1c[nH]cn1)C(=O)O)C(=O)c1c[nH]c2cc(O)ccc12`, the Activity [1] was “Active” and the Activity [2] was “Active”.

`N[C@@H](Cc1ccc(OC(=O)c2ccc(O)cc2)cc1)C(=O)O` gave an IC50 [3] of 1.78 µg/mL (≈ 5.91 µM) and an IC50 [4] of 2.31 µg/mL (≈ 7.67 µM).

From ChEMBL document CHEMBL2203226, “PPAR-γ agonistic metabolites from the ascidian Herdmania momus” (J Nat Prod, 2012)
